Data as given in patent US9475778B2, “Sulfate of 5-hydroxy-1H-imidazole-4-carboxamide” (FUJIFILM Corporation, priority 2013, dated 2016).

Key:
Assay type in all cases: physicochemical
[1] = Storage stability test (2) under conditions of 60° C. and relative humidity of 75% (purity by HPLC); details: relative humidity 75%, 2 weeks
Experimental: The purities are represented in terms of HPLC area %. The HPLC measurement was performed by using Prominence (Shimadzu) under the following conditions.
Storage Stability Test (2) Under Conditions of 60° C. and Relative Humidity of 75%
As a test substance, the crystals obtained in Example 1 were chosen.
The test substance (about 0.3 g) was put into a glass bottle, and stored under the conditions of 60° C. and relative humidity of 75% for 2 weeks. After completion of the test, purity of the substance was measured by HPLC.

[2] = Storage stability test (3) under conditions of 60° C. and relative humidity of 75% (mass change, color appearance); details: relative humidity 75%, 2 weeks; for Mass change ratio (%): glass bottle, {(A1−A0)/A0}×100
Experimental: Storage Stability Test (3) Under Conditions of 60° C. and Relative Humidity of 75%
As test substances, the crystals obtained in Example 2 and Comparative Example 2 were chosen.
Each test substance (about 0.3 g) was put into a glass bottle, and stored under the conditions of 60° C. and relative humidity of 75% for 2 weeks, and then mass was measured. Mass change ratio of each test substance was calculated according to the following equation. Mass change ratio(%)={(A1−A0)/A0}×100 A0: Mass (g) of test substance before test A1: Mass (g) of test substance after test
Change of color appearance of the test substances was also visually evaluated.

[3] = Storage for 2 weeks under conditions of 25° C. and relative humidity of 97%; details: relative humidity 97%
[4] = Storage stability test (1) under conditions of 60° C. and relative humidity of 75% (coloring); details: glass bottle, relative humidity 75%, 2 weeks, compared with crystals of Comparative Example 1
Experimental: Storage Stability Test (1) Under Conditions of 60° C. and Relative Humidity of 75%
As test substances, the crystals obtained in Examples 1 and 2 and Comparative Example 1 were chosen.
Each test substance (about 0.3 g) was put into a glass bottle, and stored under the conditions of 60° C. and relative humidity of 75% for 2 weeks.

Compound	purity of the test substance after storage (HPLC) ([1]; glass bottle, HPLC area %) [%]	Mass change ratio (%) [2]	appearance change after storage [3]	Change of color appearance ([2]; visually evaluated)	purity after storage (in words) ([1]; evaluated in the same manner as Test Example 2)	coloring after storage [4]
NC(=O)c1nc[nH]c1O.O=S(=O)(O)O [Example 1, sulfate of 5-hydroxy-1H-imidazole-4-carboxamide]	99.97	–	–	–	–	–
CS(=O)(=O)O.NC(=O)c1nc[nH]c1O [Comparative Example 2, Methanesulfonate of 5-hydroxy-1H-imidazole-4-carboxamide, reference compound]	–	+16.2%	deliquesced	–	–	–
NC(=O)c1nc[nH]c1O.O=S(=O)(O)O [Example 2, sulfate of 5-hydroxy-1H-imidazole-4-carboxamide]	–	−0.1%	did not show appearance change	No change (white)	high purity even after the storage for 2 weeks	coloring in an obviously lower degree
